Several values for one entry are separate records, joined by “and”; a condition that tells them apart may be missing. Identical values can stand only once. Like-named read-outs stand apart in the source and are kept apart here.
Assays:
[1] = system: peroxidase; assay: Peroxidase assay in saliva (Amplex Red); format: biochemical
Experimental: To determine the effect of various GRAS compounds as inhibitors of peroxidase activity, a standard assay using Amplex® Red (Life Technologies), which releases a fluorescent oxidation product.
The test compounds, such as GRAS materials or cocktails of same, were prepared at a concentration of 500 ppm in distilled water. For the assay, 50 μl samples of test compounds were mixed with 20-30 μl of saliva (either “pooled” or “unpooled”) prior to the addition of Amplex® Red. […] Reactions were allowed to run for 30 minutes during these assays.

[2] = system: Galactose Oxidase; settings: dilute (3.5%) saliva; FIG. 13
[3] = molecular target: T1, α-amylase (Homo sapiens, UniProt P0DUB6); assay: α-Amylase inhibition saliva screening (2-chloro-p-nitrophenol-maltotriose substrate, absorbance 405 nm); format: biochemical; settings: for % Inhibition / % Std: relative to 100% Saliva Control; for α-amylase assay reading (absorbance at 405 nm), single replicate / α-amylase assay reading, Ave: test compound prepared at 5,000 ppm, saliva, 37° C.; for inhibition of α-Amylase: 100% saliva samples, FIG. 11; for α-Amylase Inhibitor Activity: dilute (3.5%) saliva, FIG. 10
T1 sequence (P0DUB6 16-511): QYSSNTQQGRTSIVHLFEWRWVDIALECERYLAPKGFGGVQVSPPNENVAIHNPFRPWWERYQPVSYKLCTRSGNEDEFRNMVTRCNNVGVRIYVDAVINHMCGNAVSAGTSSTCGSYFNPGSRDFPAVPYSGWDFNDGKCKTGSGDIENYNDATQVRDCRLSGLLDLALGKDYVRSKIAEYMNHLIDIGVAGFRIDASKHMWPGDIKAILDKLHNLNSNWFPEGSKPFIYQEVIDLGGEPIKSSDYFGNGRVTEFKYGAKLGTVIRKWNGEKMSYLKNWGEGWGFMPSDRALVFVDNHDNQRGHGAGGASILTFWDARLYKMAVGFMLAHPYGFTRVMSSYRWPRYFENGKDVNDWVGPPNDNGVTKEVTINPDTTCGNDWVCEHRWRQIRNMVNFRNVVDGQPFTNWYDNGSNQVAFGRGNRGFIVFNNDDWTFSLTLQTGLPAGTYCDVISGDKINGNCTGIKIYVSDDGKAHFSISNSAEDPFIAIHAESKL
From the text: Further details of these five compounds may also be seen in Table 4.

[4] = molecular target: T2, Lysozyme (Homo sapiens, UniProt P61626); assay: Lysozyme inhibition saliva screening (fluorescein-labeled Micrococcus lysodeikticus); format: biochemical; settings: for inhibition of Lysozyme: 100% saliva samples (data not shown); for RFU Reading (60 mins): saliva, test compound prepared at 5,000 ppm; for Lysozyme Inhibitor Activity: dilute (3.5%) saliva, FIG. 12
T2 sequence (P61626 19-148): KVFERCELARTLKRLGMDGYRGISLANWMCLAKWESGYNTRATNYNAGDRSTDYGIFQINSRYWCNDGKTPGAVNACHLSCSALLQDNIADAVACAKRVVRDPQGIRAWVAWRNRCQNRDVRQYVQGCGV
From the text: Further details of these five compounds may also be seen in Table 5.

[5] = 500 ppm, pooled or unpooled saliva, 30 minutes, FIGS. 26-29

Aluminum potassium sulfate dodecahydrate [CDI-42]
peroxidase inhibition [1, 5]: significant peroxidase inhibition capabilities
Galactose Oxidase Inhibitor Activity [2]: shown to have Galactose Oxidase Inhibitor Activity
% Inhibition ([3]; 0 min): 77.07%
% Std ([3]; 0 min): 22.93%
α-amylase assay reading (absorbance at 405 nm), single replicate ([3]; 0 min): 0.80 and 1.13 and 0.90 and 0.84
α-amylase assay reading, Ave ([3]; 0 min): 0.92
inhibition of α-Amylase [3]: shown to inhibit α-Amylase
% Inhibition ([3]; 5 min): 53.76%
% Std ([3]; 5 min): 46.24%
α-amylase assay reading (absorbance at 405 nm), single replicate ([3]; 5 min): 1.65 and 2.15 and 1.80 and 1.81
α-amylase assay reading, Ave ([3]; 5 min): 1.85
% Inhibition ([3]; 15 min): 42.65%
% Std ([3]; 15 min): 57.35%
α-amylase assay reading (absorbance at 405 nm), single replicate ([3]; 15 min): 2.37 and 2.38 and 2.25 and 2.17
α-amylase assay reading, Ave ([3]; 15 min): 2.29
α-Amylase Inhibitor Activity [3]: shown to have α-Amylase Inhibitor Activity

O=C(O)c1ccccc1 [CDI-40, Benzoic acid]
Galactose Oxidase Inhibitor Activity [2]: shown to have Galactose Oxidase Inhibitor Activity
inhibition of Lysozyme [4]: shown to inhibit Lysozyme
RFU Reading (60 mins) [4]: 35.82 RFU
Lysozyme Inhibitor Activity [4]: shown to have Lysozyme Inhibitor Activity

COc1ccc(O)c(C(C)(C)C)c1 [CDI-039, 3-tert--butyl-hydroxyanisole]
peroxidase inhibition [1, 5]: significant peroxidase inhibition capabilities
Galactose Oxidase Inhibitor Activity [2]: shown to have Galactose Oxidase Inhibitor Activity

CC(=O)O [CDI-047, Acetic acid]
Galactose Oxidase Inhibitor Activity [2]: shown to have Galactose Oxidase Inhibitor Activity
inhibition of Lysozyme [4]: shown to inhibit Lysozyme
RFU Reading (60 mins) [4]: 33.53 RFU
Lysozyme Inhibitor Activity [4]: shown to have Lysozyme Inhibitor Activity

O=C(O)c1ccccc1 [CDI #16, Benzoic acid]
peroxidase inhibition [1]: significant peroxidase inhibition capabilities

Aluminum sulfate hydrate [CDI-34]
% Inhibition ([3]; 0 min): 89.96%
% Std ([3]; 0 min): 10.04%
α-amylase assay reading, Ave ([3]; 0 min): 0.40
α-amylase assay reading (absorbance at 405 nm), single replicate ([3]; 0 min, sulfate hydrate): 0.40 (2×) and 0.36 and 0.45
inhibition of α-Amylase [3]: shown to inhibit α-Amylase
% Inhibition ([3]; 5 min): 87.39%
% Std ([3]; 5 min): 12.61%
α-amylase assay reading, Ave ([3]; 5 min): 0.50
α-amylase assay reading (absorbance at 405 nm), single replicate ([3]; 5 min, sulfate hydrate): 0.49 and 0.50 (2×) and 0.52
% Inhibition ([3]; 15 min): 85.98%
% Std ([3]; 15 min): 14.02%
α-amylase assay reading, Ave ([3]; 15 min): 0.56
α-amylase assay reading (absorbance at 405 nm), single replicate ([3]; 15 min, sulfate hydrate): 0.53 and 0.61 and 0.54 and 0.56
α-Amylase Inhibitor Activity [3]: shown to have α-Amylase Inhibitor Activity

Cn1c(=O)c2c(ncn2C)n(C)c1=O [CDI #33, Caffeine]
peroxidase inhibition [1, 5]: significant peroxidase inhibition capabilities

Reference: patent publication US20110195403A1, “SYSTEMS AND METHODS FOR FERTILITY ANALYSIS” (priority 2010, published 2011)
